Results taken from patent US9040528B2, “Chemical compounds 542” (AstraZeneca AB, priority 2008, dated 2015).

molecular target: Escherichia coli DNA gyrase A/B tetramer (Escherichia coli (strain K12), UniProt P0AES4+P0AES6); experiment: DNA gyrase supercoiling activity fluorescence polarisation assay; assay type: biochemical; settings: not given
How it was run: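 Supercoiling reactions quenched with 40 nM 5′-BODIPY-FL triplex-forming oligonucleotide probe in pH 3.5 NaCl/sodium acetate buffer; after 60 min, fluorescence anisotropy read (ex 485/em 535 nm). IC50 by nonlinear regression, normalised to 0.8% DMSO (100% activity) and 5 μM ciprofloxacin (0% activity).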

Structure (SMILES) | IC50 [nM]
Cc1nnsc1-c1noc2c(F)c3c(cc12)CC1(C(=O)NC(=O)NC1=O)[C@H]1[C@H](C)O[C@H](C)CN31 (racemic) [Example 72, (2R,4S,4aS)-rel-11-fluoro-2,4-dimethyl-8-(4-methyl-1,2,3-thiadiazol-5-yl)-1,2,4,4a-tetrahydro-2′H,6H-spiro[1,4-oxazino[4,3-a][1,2]oxazolo[4,5-g]quinoline-5,5′-pyrimidine]-2′,4′,6′(1′H,3′H)-trione] | 900

same assay, conditions: 5 nM enzyme, relaxed plasmid, 0.3 mM ATP, ambient temperature; read-out: E. coli DNA gyrase supercoiling IC50

Structure (SMILES) | IC50 [nM]
C[C@@H]1CN2c3c(cc4c(C(=O)NC5CC5)noc4c3F)CC3(C(=O)NC(=O)NC3=O)[C@H]2[C@H](C)O1 (relative stereo) [Example 150, (2R,4S,4aS)-rel-N-cyclopropyl-11-fluoro-2,4-dimethyl-2′,4′,6′-trioxo-2,2′,3′,4,4a,4′,6,6′-octahydro-1H,1′H-spiro[isoxazolo[4,5-g][1,4]oxazino[4,3-a]quinoline-5,5′-pyrimidine]-8-carboxamide] | 1300
C[C@@H]1CN2c3c(cc4c(-n5cnc(C(F)(F)F)c5)noc4c3F)CC3(C(=O)NC(=O)NC3=O)[C@H]2[C@H](C)O1 (relative stereo) [Example 59, (2R,4S,4aS)-rel-11-fluoro-2,4-dimethyl-8-[4-(trifluoromethyl)-1H-imidazol-1-yl]-1,2,4,4a-tetrahydro-2′H,6H-spiro[1,4-oxazino[4,3-a][1,2]oxazolo[4,5-g]quinoline-5,5′-pyrimidine]-2′,4′,6′(1′H,3′H)-trione] | 6600
C[C@@H]1CN2c3c(cc4c(C(=O)NCC(F)F)noc4c3F)CC3(C(=O)NC(=O)NC3=O)[C@H]2[C@H](C)O1 [Example 94(b), (2R,4S,4aS)—N-(2,2-difluoroethyl)-11-fluoro-2,4-dimethyl-2′,4′,6′-trioxo-2,2′,3′,4,4a,4′,6,6′-octahydro-1H,1′H-spiro[isoxazolo[4,5-g][1,4]oxazino[4,3-a]quinoline-5,5′-pyrimidine]-8-carboxamide] | 800
C[C@@H]1CN2c3c(nc4c(-c5ccncc5)noc4c3Cl)CC3(C(=O)NC(=O)NC3=O)[C@H]2[C@H](C)O1 (relative stereo) [Example 108, (2R,4S,4aS)-rel-11-chloro-2,4-dimethyl-8-(pyridyin-4-yl)-2,4,4a,6-tetrahydro-1H,1′H-spiro[isoxazolo[4,5-g][1,4]oxazino[4,3-a][1,5]naphthyridine-5,5′-pyrimidine]-2′,4′,6′(3′H)-trione] | 800
C[C@@H]1CN2c3c(cc4c(-c5ccnnc5)noc4c3Cl)CC3(C(=O)NC(=O)NC3=O)[C@H]2[C@H](C)O1 (relative stereo) [Example 45, (2R,4S,4aS)-rel-11-chloro-2,4-dimethyl-8-(pyridazin-4-yl)-1,2,4,4a-tetrahydro-2′H,6H-spiro[1,4-oxazino[4,3-a][1,2]oxazolo[4,5-g]quinoline-5,5′-pyrimidine]-2′,4′,6′(1′H,3′H)-trione] | 1600
C[C@@H]1CN2c3c(cc4c(C5CC5)noc4c3Cl)CC3(C(=O)NC(=O)NC3=O)[C@H]2[C@H](C)O1 (racemic) [Example 39, (2R,4S,4 aS)-rel-11-chloro-8-cyclopropyl-2,4-dimethyl-1,2,4,4a-tetrahydro-2′H,6H-spiro[1,4-oxazino[4,3-a][1,2]oxazolo[4,5-g]quinoline-5,5′-pyrimidine]-2′,4′,6′(1′H,3′H)-trione] | 600
C[C@@H]1CN2c3c(cc4c(-c5nccs5)noc4c3Cl)CC3(C(=O)NC(=O)NC3=O)[C@H]2[C@H](C)O1 (relative stereo) [Example 48, (2R,4S,4aS)-rel-11-chloro-2,4-dimethyl-8-(1,3-thiazol-2-yl)-1,2,4,4a-tetrahydro-2′H,6H-spiro[1,4-oxazino[4,3-a][1,2]oxazolo[4,5-g]quinoline-5,5′-pyrimidine]-2′,4′,6′(1′H,3′H)-trione] | 1000
Cc1noc2c(F)c3c(cc12)CC1(C(=O)NC(=O)NC1=O)[C@H]1[C@H](C)O[C@H](C)CN31 [Example 2(b), (2R,4S,4aS)-11-fluoro-2,4,8-trimethyl-2,4,4a,6-tetrahydro-1H,1′H-spiro[isoxazolo[4,5-g][1,4]oxazino[4,3-a]quinoline-5,5′-pyrimidine]-2′,4′,6′(3′H)-trione] | 300
C[C@@H]1CN2c3c(cc4c(NCc5nccs5)noc4c3F)CC3(C(=O)NC(=O)NC3=O)[C@H]2[C@H](C)O1 (relative stereo) [Example 10, (2R,4S,4aS)-rel-11-fluoro-2,4-dimethyl-8-[(1,3-thiazol-2-ylmethyl)amino]-1,2,4,4a-tetrahydro-2′H,6H-spiro[1,4-oxazino[4,3-a][1,2]oxazolo[4,5-g]quinoline-5,5′-pyrimidine]-2′,4′,6′(1′H,3′H)-trione] | 1900
Cc1cnc(-c2noc3c(Cl)c4c(nc23)CC2(C(=O)NC(=O)NC2=O)[C@H]2[C@H](C)O[C@H](C)CN42)s1 (relative stereo) [Example 122, (2R,4S,4aS)-rel-11-Chloro-2,4-dimethyl-8-(5-methylthiazol-2-yl)-2,4,4a,6-tetrahydro-1H,1′H-spiro[isoxazolo[4,5-g][1,4]oxazino[4,3-a][1,5]naphthyridine-5,5′-pyrimidine]-2′,4′,6′(3′H)-trione] | 500
